# Measurements published in publication PMC6957519, “NLRP6 self-assembles into a linear molecular platform following LPS binding and ATP stimulation” (Scientific Reports, 2020).
# Several values for one entry are separate records, joined by “and”; a condition that tells them apart may be missing. Equal values may be shown once.
# T1: NLRP6 (Homo sapiens, UniProt P59044)
# T1 construct: full-length 1-892; N-terminal His-MBP tag removed by HRV3C; E. coli BL21(DE3); monomer, dimerises with LPS
# T1 sequence (P59044 1-892): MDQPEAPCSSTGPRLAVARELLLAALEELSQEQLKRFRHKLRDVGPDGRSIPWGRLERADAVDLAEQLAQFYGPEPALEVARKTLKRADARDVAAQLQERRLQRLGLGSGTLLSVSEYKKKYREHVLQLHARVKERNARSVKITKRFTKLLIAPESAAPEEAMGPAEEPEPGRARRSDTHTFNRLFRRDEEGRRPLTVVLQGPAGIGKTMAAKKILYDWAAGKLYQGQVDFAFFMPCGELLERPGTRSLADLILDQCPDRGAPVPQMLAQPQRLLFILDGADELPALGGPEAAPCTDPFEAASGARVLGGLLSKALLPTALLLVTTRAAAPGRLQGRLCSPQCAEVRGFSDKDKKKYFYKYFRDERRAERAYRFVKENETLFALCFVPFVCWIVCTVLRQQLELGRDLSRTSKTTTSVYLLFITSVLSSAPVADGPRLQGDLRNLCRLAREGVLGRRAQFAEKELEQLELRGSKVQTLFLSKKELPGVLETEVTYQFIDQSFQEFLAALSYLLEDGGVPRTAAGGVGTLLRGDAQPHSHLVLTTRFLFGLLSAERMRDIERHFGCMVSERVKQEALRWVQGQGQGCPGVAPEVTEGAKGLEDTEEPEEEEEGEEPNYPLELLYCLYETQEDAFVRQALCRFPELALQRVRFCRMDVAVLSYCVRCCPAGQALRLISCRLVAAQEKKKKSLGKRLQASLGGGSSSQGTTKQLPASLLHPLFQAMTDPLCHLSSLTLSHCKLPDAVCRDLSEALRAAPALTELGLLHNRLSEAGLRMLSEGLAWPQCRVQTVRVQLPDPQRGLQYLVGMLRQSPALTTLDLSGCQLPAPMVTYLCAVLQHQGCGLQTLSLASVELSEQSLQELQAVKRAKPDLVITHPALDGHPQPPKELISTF
# Tests used:
# NLRP6 [1] = biological target: T1, NLRP6; test: gel filtration and EM, nucleotide-induced oligomerization; type: binding; details: with LPS (LPS-bound dimer); no shift of the monomer with ATP alone; putative NOD domain site
# NLRP6 [2] = biological target: T1, NLRP6; test: nucleotide-induced oligomerization; type: binding; details: with LPS (LPS-bound dimer); putative NOD domain site
# [3] = biological target: the molecule itself; test: negative-stain electron microscopy with 3D reconstruction; NLRP6 with LPS and 1 mM ATP (peak 3 of the gel filtration); particles classed by the number of shrinked links; tetramer map from 8783 particles
# [4] = biological target: the molecule itself; test: SEC; NLRP6 monomer incubated with LPS (Ra, 10 uM or 20 uM; NLRP6 to component 1:20), Superdex 200 10/300; similar peak shifts with LPS Rc, Rd, Re, Lipid A, FITC-LPS and Pam3CSK4
# [5] = biological target: the molecule itself; test: negative-stain electron microscopy; NLRP6 with LPS and ATP increased to 2 mM
Molecule,nucleotide-induced oligomerization (NLRP6 [2]),other results
Nc1ncnc2c1ncn2[C@@H]1O[C@H](COP(=O)(O)OP(=O)(O)OP(=O)(O)O)[C@@H](O)[C@H]1O [ATP],–,"gel filtration and EM, nucleotide-induced oligomerization (NLRP6 [1]): in the presence of both ATP and LPS, NLRP6 showed additional peak shifts"
Nc1ncnc2c1ncn2[C@H]1C[C@H](O)[C@@H](COP(=O)(O)OP(=O)(O)OP(=O)(O)O)O1 [deoxy-ATP],"demonstrated by ATP, GTP, CTP, TTP, and deoxy-ATP (dATP) treatment",–
Nc1ccn([C@@H]2O[C@H](COP(=O)(O)OP(=O)(O)OP(=O)(O)O)[C@@H](O)[C@H]2O)c(=O)n1 [CTP],"demonstrated by ATP, GTP, CTP, TTP, and deoxy-ATP (dATP) treatment",–
Cc1cn([C@H]2C[C@H](O)[C@@H](COP(=O)(O)OP(=O)(O)OP(=O)(O)O)O2)c(=O)[nH]c1=O [TTP],"demonstrated by ATP, GTP, CTP, TTP, and deoxy-ATP (dATP) treatment",–
Nc1nc2c(ncn2[C@@H]2O[C@H](COP(=O)(O)OP(=O)(O)OP(=O)(O)O)[C@@H](O)[C@H]2O)c(=O)[nH]1 [GTP],"demonstrated by ATP, GTP, CTP, TTP, and deoxy-ATP (dATP) treatment",–
"Recombinant full-length human NLRP6 (1–892) (natural protein, UniProt P59044 1-892, looked up, NLRP6, human, full length, residues 1-892; Number of copies depends on the condition: monomer in the arginine buffer, dimer with LPS, tetramer, hexamer and longer linear oligomers with LPS and ATP; also called NLRP6 monomer; NLRP6 dimer; not shown: His-tag, N-terminal, cleaved; MBP, N-terminal, cleaved) MDQPEAPCSSTGPRLAVARELLLAALEELSQEQLKRFRHKLRDVGPDGRSIPWGRLERADAVDLAEQLAQFYGPEPALEVARKTLKRADARDVAAQLQERRLQRLGLGSGTLLSVSEYKKKYREHVLQLHARVKERNARSVKITKRFTKLLIAPESAAPEEAMGPAEEPEPGRARRSDTHTFNRLFRRDEEGRRPLTVVLQGPAGIGKTMAAKKILYDWAAGKLYQGQVDFAFFMPCGELLERPGTRSLADLILDQCPDRGAPVPQMLAQPQRLLFILDGADELPALGGPEAAPCTDPFEAASGARVLGGLLSKALLPTALLLVTTRAAAPGRLQGRLCSPQCAEVRGFSDKDKKKYFYKYFRDERRAERAYRFVKENETLFALCFVPFVCWIVCTVLRQQLELGRDLSRTSKTTTSVYLLFITSVLSSAPVADGPRLQGDLRNLCRLAREGVLGRRAQFAEKELEQLELRGSKVQTLFLSKKELPGVLETEVTYQFIDQSFQEFLAALSYLLEDGGVPRTAAGGVGTLLRGDAQPHSHLVLTTRFLFGLLSAERMRDIERHFGCMVSERVKQEALRWVQGQGQGCPGVAPEVTEGAKGLEDTEEPEEEEEGEEPNYPLELLYCLYETQEDAFVRQALCRFPELALQRVRFCRMDVAVLSYCVRCCPAGQALRLISCRLVAAQEKKKKSLGKRLQASLGGGSSSQGTTKQLPASLLHPLFQAMTDPLCHLSSLTLSHCKLPDAVCRDLSEALRAAPALTELGLLHNRLSEAGLRMLSEGLAWPQCRVQTVRVQLPDPQRGLQYLVGMLRQSPALTTLDLSGCQLPAPMVTYLCAVLQHQGCGLQTLSLASVELSEQSLQELQAVKRAKPDLVITHPALDGHPQPPKELISTF",–,stoichiometry N [3]: 4 and 6 and 8 and 10; stoichiometry N [4]: 2; stoichiometry N [5]: 16 and 18
